Measurements: ChEMBL document CHEMBL1201862, “PubChem BioAssay data set” (2004)
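Interpolation was linear, between the two tested concentrations surrounding the appropriate level; five concentrations were tested over 48 hours in 96-well plates. At the GI50, growth is halved.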 Calls of active or inactive are those of the source. Cut-off read from the data, not from the text of the source: active = GI50 up to about 1.1 µM and inactive = higher.

What was measured:
Test in all cases: NCI anticancer screen, dose series, 48 h
ACHN = test system: ACHN
CAKI-1 = test system: CAKI-1
HCC 2998 = test system: HCC 2998
HCT-116 = test system: HCT-116
HL-60 = test system: HL-60
HOP-62 = test system: HOP-62
IGROV-1 = test system: IGROV-1
K562 = test system: K562
KM12 = test system: KM12
M14 = test system: M14
MCF7 = test system: MCF7
OVCAR-3 = test system: OVCAR-3
OVCAR-5 = test system: OVCAR-5
SF-539 = test system: SF-539
SK-MEL-5 = test system: SK-MEL-5
SN12C = test system: SN12C
SNB-75 = test system: SNB-75
UACC-257 = test system: UACC-257
UACC-62 = test system: UACC-62
UO-31 = test system: UO-31

| Structure (SMILES) | GI50 (ACHN) | GI50 (CAKI-1) | GI50 (HCC 2998) | GI50 (HCT-116) | GI50 (HL-60) | GI50 (HOP-62) | GI50 (IGROV-1) | GI50 (K562) | GI50 (KM12) | GI50 (M14) | GI50 (MCF7) | GI50 (OVCAR-3) | GI50 (OVCAR-5) | GI50 (SF-539) | GI50 (SK-MEL-5) | GI50 (SN12C) | GI50 (SNB-75) | GI50 (UACC-257) | GI50 (UACC-62) | GI50 (UO-31) |
| --- | --- | --- | --- | --- | --- | --- | --- | --- | --- | --- | --- | --- | --- | --- | --- | --- | --- | --- | --- | --- |
| Cc1ccc(/C=C2\Cc3c(C)cc(C)cc3C2=O)c(C(=O)O)c1 | 59.6 µM (inactive) | > 100 µM (inactive) | 38.4 µM (inactive) | 49.4 µM (inactive) | 23.1 µM (inactive) | 83.4 µM (inactive) | 79.8 µM (inactive) | 54.7 µM (inactive) | 46.3 µM (inactive) | > 100 µM (inactive) | 56.2 µM (inactive) | 31 µM (inactive) | 33.2 µM (inactive) | 15.9 µM (inactive) | 25.8 µM (inactive) | 67.5 µM (inactive) | 58.9 µM (inactive) | 61.8 µM (inactive) | 41.1 µM (inactive) | 50.7 µM (inactive) |
| CCOC(=O)/C=C(\C(=O)OCC)n1ccc(=O)n(Cc2cnnn2CCCCOC(C)=O)c1=O | 1.83 µM (inactive) | 2.38 µM (inactive) | 18.4 µM (inactive) | 6.21 µM (inactive) | 2.79 µM (inactive) | 19.7 µM (inactive) | 14 µM (inactive) | 2.37 µM (inactive) | 15.9 µM (inactive) | 17.5 µM (inactive) | 4.79 µM (inactive) | 5.3 µM (inactive) | 12.4 µM (inactive) | 2.03 µM (inactive) | 13.5 µM (inactive) | 10.4 µM (inactive) | 14 µM (inactive) | 11.3 µM (inactive) | 6.14 µM (inactive) | 21.7 µM (inactive) |
| O=C(Nc1ccn(C2CC(O)C(COC(c3ccccc3)(c3ccccc3)c3ccccc3)O2)c(=O)n1)c1ccccc1 (stereo not given) | 3.35 µM (inactive) | 6.32 µM (inactive) | 7.36 µM (inactive) | 2 µM (inactive) | 2.61 µM (inactive) | 5.62 µM (inactive) | 2.9 µM (inactive) | 2.92 µM (inactive) | 4.35 µM (inactive) | 2.3 µM (inactive) | 2.43 µM (inactive) | 2.03 µM (inactive) | 1.87 µM (inactive) | 3.36 µM (inactive) | 2.33 µM (inactive) | 1.89 µM (inactive) | 4.66 µM (inactive) | 12.7 µM (inactive) | 5.98 µM (inactive) | 6.81 µM (inactive) |
| S=C(N/N=C/c1ccccn1)N1CCCCCC1 | < 0.01 µM (active) | < 0.0423 µM (active) | 0.444 µM (active) | < 0.01 µM (active) | < 0.01 µM (active) | < 0.01 µM (active) | < 0.01 µM (active) | < 0.01 µM (active) | < 0.01 µM (active) | < 0.01 µM (active) | < 0.01 µM (active) | < 0.01 µM (active) | < 0.0458 µM (active) | < 0.0288 µM (active) | < 0.0141 µM (active) | < 0.0192 µM (active) | 0.0783 µM (active) | < 0.01 µM (active) | < 0.0245 µM (active) | 0.0288 µM (active) |
| COc1cc(/C=C/C(=O)CC(=O)/C=C/c2ccc(O)c(OC)c2)ccc1O [CURCUMIN] | 12.4 µM (inactive) | 11.9 µM (inactive) | 3.02 µM (inactive) | 2.92 µM (inactive) | 7.33 µM (inactive) | 3.63 µM (inactive) | 7.89 µM (inactive) | 3.13 µM (inactive) | 5.45 µM (inactive) | 3.78 µM (inactive) | 3.34 µM (inactive) | 6.64 µM (inactive) | 16.6 µM (inactive) | 2.84 µM (inactive) | 8.81 µM (inactive) | 8.41 µM (inactive) | 6.84 µM (inactive) | 11.5 µM (inactive) | 6.49 µM (inactive) | 11.3 µM (inactive) |
